PMC6789782, “Safety Pharmacological Evaluation of the Coffee Component, Caffeoylquinic Acid, and Its Metabolites, Using Ex Vivo and In Vitro Profiling Assays” (Pharmaceuticals, 2019)

What was measured:
peristaltic movement = tested on: peristaltic movement; set-up: method as in earlier work; conditions: ref review reports on the Pharmaceuticals and Medical Devices Agency website; cited from earlier work
rat hippocampal slices [1] = experiment: Electrophysiological assay of hippocampal slices, population spike (PS) recording
Experimental: All animals were housed and used in accordance with the French and European legislations for animal care. Rats (Janvier Labs, Le Genest-Saint-Isle, France) were euthanized by fast decapitation, without prior anesthesia. The brain was quickly removed and soaked in ice-cold oxygenated buffer containing KCl 2 mM, NaH2PO4 1.2 mM, MgCl2 7 mM, CaCl2 0.5 mM, NaHCO3 26 mM, glucose 11 mM, and sucrose 250 mM. […] During the experiments, slices were perfused with oxygenated artificial cerebrospinal fluid at 37 °C at a rate of 3 mL/min. The tested slice numbers were > 2 for 100 µM, > 4 for 10 µM, and > 6 for 1 µM (follow-up study). All experiments were carried out with 3-dimensional multielectrode array (Qwane Biosciences S.A., Lausanne, Switzerland) and data were recorded with a commercially available multielectrode array set-up from MultiChannel Systems (MCS GmbH, Reutlingen, Germany).
A hippocampal slice was placed on the multielectrode array (100 μm distant electrodes). One electrode was chosen to stimulate schaffer collaterals (SC) at the CA1 border. The stimulus in a monopolar biphasic current pulse (−300 μA for 60 μs followed by +300 μA for 60 μs) was applied at 30-s intervals. An Input/Output (I/O) curve was derived before each experiment to determine the stimulation intensity. Basal stimulation intensity was then set to 100 μA higher than the minimal intensity necessary to induce PS in the pyramidal cell layer.
Then, 1 μM bicuculline, the antagonist of GABAA, was applied in the continuous presence of the compound for an additional 40-min. Control bicuculline slices were recorded in parallel and after 50 min of control recording, 1 μM bicuculline was applied for a 40-min period.
Normalized PS AUC was averaged by slices for each experiment carried out in the same conditions. PS AUC (± SEM) is expressed as a function of time. The number of PS oscillations induced at the end of the bicuculline-exposure period was determined for each electrode and averaged by slices. The results are presented as mean of the last 2 min of application. Statistical significance was measured using two-way ANOVA analysis with Sidak’s multiple comparisons test, except for the 100 µM concentration because of its small slice number.

[2] = tested on: isolated perfused guinea pig heart; experiment: Langendorff perfused heart assay
Experimental: After injection of heparin sodium (100 unit/body, AY Pharmaceuticals Co., Ltd.) into the jugular vein, the animals were exsanguinated. […] A stainless-steel cannula was inserted in the aorta, followed by attachment to the Langendorff apparatus (Physio-Tech Co., Ltd., Tokyo, Japan). The attached heart was perfused with KH solution at 37.0 ± 0.2 °C. Before use, the KH solution was aerated by a gas mixture (95%O2 + 5%CO2) for 30 min or longer. The perfusion pressure was maintained at 70 mmHg.
DMSO solutions at 1, 10, and 100 mM were diluted 1000-fold with the KH solution to make test solutions of 1, 10, and 100 μM, respectively. The test solutions were cumulatively applied at a flow rate of 20 mL/min for 10 min with each concentration.
An ECG signal was recorded using electrodes fixed on the ventricular apex (+), and a stainless-steel cannula was inserted in the aorta (−), and LVP was recorded from the balloon catheter placed in the left ventricle. The ECG signals were amplified with an amplifier (DAM50; World Precision Instruments, Inc.) and LVPs were monitored with a Pressure Monitor 4 (Living Systems Instrumentation). Both of the waveforms were recorded with computer software (1000 Hz; iox2 and ecgAUTO3; emka Technologies).
Before measurement, the in-balloon pressure was adjusted so that the diastolic blood pressure would be in the range of 0 to 10 mmHg. The cardiac parameters, such as HR, PR interval, QRS duration, QT interval, QTc interval (Fridericia’s formula: QTc = QT/RR^1/3), LVPSP, left-ventricular end diastolic pressure (LVEDP), and LV dP/dt max, were measured.
Data are expressed as mean (± SD). The measured % changes from the pre-application value were used for analyses. Williams test was carried out between the solvent-control and test compound. Student’s t-test was carried out between the solvent-control and positive-control. […] The data from the solvent control and drug groups were tested by F test for homogeneity of variance. F test was performed at the significance level of 5%. When the variances were homogeneous, Student’s t-test was subsequently performed. When the variances were nonhomogeneous, Welch t-test was selected.

[3] = cited from earlier work
rat hippocampal slices [4] = experiment: Electrophysiological assay of hippocampal slices, epileptiform discharge (ED) recording; conditions: ± SEM
Experimental: A hippocampal slice was placed on the multielectrode array (200 μm distant electrodes) to ensure the multi-electrode grid covered the major surface of the slice. […]
ED frequency (in Hz) was determined as follows: raw data were filtered with a Low Pass filter (Butterworth second order filter) set to 20 Hz. ED number was monitored on-line (epileptiform event amplitudes had to be higher than 15 μV to be counted; a dead time of 200 ms was applied for each epileptiform event detected). ED frequency was averaged using 30-s time intervals. Results are presented as mean frequency of ED for the last 2 min of each condition (± SEM).

[5] = laboratory background data of drugs, n = 3
[6] = within the existing concentration range of each drug, laboratory background data

Lowest concentration indicating statistically significant % change to solvent control, HR [2, 5] [µM] | Lowest concentration indicating statistically significant % change to solvent control, LV dP/dtmax [2, 5] [µM] | Lowest concentration indicating statistically significant % change to solvent control, LVPSP [2, 5] [µM] | Lowest concentration indicating statistically significant % change to solvent control, PR [2, 5] [µM] | Lowest concentration indicating statistically significant % change to solvent control, QRS [2, 5] [µM] | Maximum % change in LV dP/dt max [2, 6] [%] | SMILES | Lowest concentration indicating statistically significant % change to solvent control, QT [2, 5] [µM] | Lowest concentration indicating statistically significant % change to solvent control, QTc [2, 5] [µM] | EfTPC (effective free therapeutic plasma concentration) [3] | also measured
1 | 1 | 1 | 10 | 10 | −47.4 | Cc1nccn1CC1CCc2c(c3ccccc3n2C)C1=O (stereo not shown) [Ondansetron] | 1 | 1 | 1.023 [25] µM | Lowest concentration indicating statistically significant % change to solvent control, LVEDP [2, 5]: 1 µM
30 | 100 | 3 | 30 | 10 | – | COc1c(N2C[C@@H]3CCCN[C@@H]3C2)c(F)cc2c(=O)c(C(=O)O)cn(C3CC3)c12 [Moxifloxacin] | 3 | 3 | 10.960 [26] µM | Maximum % change in QT interval [2, 6]: 29.3%
– | – | – | – | – | −21.8 | O=C(O)COCCN1CCN([C@H](c2ccccc2)c2ccc(Cl)cc2)CC1 [Levocetirizine] | – | – | – | –
1 | – | 1 | 1 | 3 | – | O=C(O[C@@H]1C[C@@H]2C[C@H]3C[C@H](C1)N2CC3=O)c1c[nH]c2ccccc12 [Dolasetron] | – | – | – | Lowest concentration indicating statistically significant % change to solvent control, LV dP/dtmax ([2]; Hartley, guinea pig): 1 µM; Lowest concentration indicating statistically significant % change to solvent control, QT ([2]; Hartley, guinea pig): 1 µM; Lowest concentration indicating statistically significant % change to solvent control, QTc ([2]; Hartley, guinea pig): 1 µM; Maximum % change in PR interval [2, 6]: 106.9%

Continued, compound first:

SMILES | Lowest concentration indicating statistically significant % change to solvent control, HR [2, 5] [µM] | Lowest concentration indicating statistically significant % change to solvent control, LV dP/dtmax [2, 5] [µM] | Lowest concentration indicating statistically significant % change to solvent control, LVPSP [2, 5] [µM] | Lowest concentration indicating statistically significant % change to solvent control, PR [2, 5] [µM] | Lowest concentration indicating statistically significant % change to solvent control, QRS [2, 5] [µM] | Maximum % change in LV dP/dt max [2, 6] [%] | Lowest concentration indicating statistically significant % change to solvent control, QT [2, 5] [µM] | Lowest concentration indicating statistically significant % change to solvent control, QTc [2, 5] [µM] | EfTPC (effective free therapeutic plasma concentration) [3] | also measured
Nc1nnc(-c2cccc(Cl)c2Cl)c(N)n1 [Lamotrigine] | – | – | – | – | – | – | – | – | – | Concentration at which peristaltic movement was reduced (peristaltic movement): 300 nM
CN1CCc2cc3c(cc2[C@H]1[C@@H]1OC(=O)c2c1ccc1c2OCO1)OCO3 [bicuculline, reference compound] | – | – | – | – | – | – | – | – | – | Additional spike number (rat hippocampal slices [1]; 1 μM alone, single stimulation, control slices): 1.32 ± 0.32; Additional spike number (rat hippocampal slices [1]; follow-up test, 1 μM bicuculline control slices): 1.47 ± 0.18
C=C[C@H]1C[N@@]2CC[C@H]1C[C@H]2[C@H](O)c1ccnc2ccc(OC)cc12 [Quinine] | 1 | 1 | 1 | 3 | 3 | −77.3 | 1 | 1 | 21.577 [25] µM | Lowest concentration indicating statistically significant % change to solvent control, LVEDP [2, 5]: 30 µM
CN(CCOc1ccc(NS(C)(=O)=O)cc1)CCc1ccc(NS(C)(=O)=O)cc1 [Dofetilide] | 0.001 | – | 0.03 | 0.01 | – | – | 0.001 | 0.001 | – | Maximum % change in QT interval [2, 6]: 33.5%
Nc1ccncc1 [4-AP, 4-aminopyridine, reference compound] | – | – | – | – | – | – | – | – | – | ED rate (rat hippocampal slices [4]; 4-AP control slices (4-AP alone)): 0.38 ± 0.02 Hz; ED rate (rat hippocampal slices [4]; follow-up test, 4-AP control slices): 0.38 ± 0.04 Hz
